Measured values reported in article PMC7559746 (Pharmaceutics, 2020).
“And” between values parts separate entries of the source, which are not always exact repeats. Equal values may be shown once. Read-outs that look alike come from different tables or passages of the source.

Key:
[1] = Toxicity in patients (CTCAE version 4.0, patient diaries) per study phase; assay type: in vivo, human
Description: Toxicity was described as the incidence of toxicity per phase. This was corrected for baseline toxicity and was only taken into account in case of an increase in CTCAE grade per PK sampling day.

[2] = at clinically relevant doses; cited from earlier work
[3] = parameters: method as in PMID 29065985; conditions: cited from earlier work
[4] = clinical; conditions: human, plasma, oral
Description: Patients were admitted to the hospital on days 1 and 15 of the study for pharmacokinetic blood sampling. […] Blood samples were processed into plasma within 30 min, by vortex mixing and centrifugation for 10 min at 2500× g at 4 °C. Plasma concentrations were determined using a validated liquid chromatography tandem mass spectrometry (LC-MS/MS) method [18], at both the laboratory of Translational Pharmacology in the Erasmus MC, Rotterdam, and the laboratory of Pharmaceutics and Pharmaceutical Chemistry, Ohio State University, OH.
The point estimates and CIs were transformed back to the original scale in order to give the point estimates for the ratio of the geometric means and the CIs. Tmax was analyzed by means of the Wilcoxon signed rank test and described with medians and interquartile ranges. Toxicity was described as the incidence of toxicity per phase. This was corrected for baseline toxicity and was only taken into account in case of an increase in CTCAE grade per PK sampling day.

[5] = Sorafenib concentration in 3-mm skin biopsies of patients (LC-MS/MS); assay type: in vivo, human
Description: A 3-mm skin biopsy was obtained at days 1 and 15 of the study during PK sampling days for pharmacokinetic analysis. Skin biopsies were taken from either the forearm or the shoulder region, but always from the same region at the same timepoint in an individual patient during the two consecutive PK sampling days. If patients had HFSR lesions at the hand at the first PK day, an additional skin biopsy was performed from the thenar eminence region of the hand for pathologic analysis on days 1 and 15. The biopsies were graded according to the scoring for interface dermatitis as used for graft-versus-host disease by an experienced pathologist (J.D.).

[6] = plasma, relative difference of geometric means
[7] = plasma, sorafenib monotherapy (day 1)

## CCCN(CCC)S(=O)(=O)c1ccc(C(=O)O)cc1 [Probenecid, probenecid]
[1]; during probenecid administration (concomitant with sorafenib)
  occurrence of HFSR, rash, anorexia, and fatigue: 65%
[2]
  plasma concentrations achieved: higher than 200 µM

## CNC(=O)c1cc(Oc2ccc(NC(=O)Nc3ccc(Cl)c(C(F)(F)F)c3)cc2)ccn1 [Sorafenib, sorafenib]
[1]; N = 16 per phase
  Anorexia, Grade 1–2, patients: 4
  Constipation, Grade 1–2, patients: 2
  Diarrhea, Grade 1–2, patients: 1
  Fatigue, Grade 1–2, patients: 2
  Fever, Grade 1–2, patients: 1
  HFSR, Grade 1–2, patients: 3
  Nausea, Grade 1–2, patients: 1
  Oral mucositis, Grade 1–2, patients: 1
  Pain, Grade 1–2, patients: 1
  Pain, Grade 3, patients: 1
  Rash, Grade 1–2, patients: 1
  Vomiting, Grade 1–2, patients: 0
[1]; N = 16 per phase, assumed not related to study drugs
  Serious adverse events (SAE): 1
[1]; during sorafenib monotherapy
  occurrence of HFSR, rash, anorexia, and fatigue: 43%
[1]; whole study
  patients in whom HFSR occurred: 10 of 16 patients
[3]
  clinical incidence of HFSR ≥ grade 3: 20%
[4]
  Cmax: 3340 ng/mL
  Tmax: 2.2 h
[4]; 500 mg
  AUC(0-t): 24500 ng·h/mL
90% CI: −32.9% to 30.7%, P = 0.73
  difference in sorafenib plasma AUC between patients with or without liver cirrhosis: −6.3%
90% CI: −46.8% to 61.3%, P = 0.81
  difference in sorafenib plasma Ctrough between patients with or without liver cirrhosis: −7.4%
human, plasma, oral
  AUC(0-t): 33500 ng·h/mL
human, plasma, oral, Cmax (CV%) geomean, plasma, sorafenib monotherapy (day 1)
  Cmax: 4460 ng/mL
human, plasma, oral, Tmax (IQR) median, plasma, sorafenib monotherapy (day 1)
  Tmax: 3.7 h
[6]
  RD sorafenib monotherapy vs. sorafenib + probenecid (90% CI), Cmax: −25.1% (−44.3% to −19.7%)
  RD sorafenib monotherapy vs. sorafenib + probenecid (90% CI), Ctrough: −26.0% (−43.4% to −3.4%)
[7]
  Ctrough (CV%) geomean: 2125.5 (60) μg/mL
Vs sorafenib alone, decrease
  decrease of geometric mean plasma AUC0–12 h with concomitant probenecid: 27% and 26.8%
  decrease of plasma Cmax with concomitant probenecid: 25.1%
  decrease of plasma Ctrough with concomitant probenecid: 26.0%
[5]; human, skin and plasma, oral
  Kp at 15 study day: 0.00147
[5]; skin biopsy
  RD sorafenib monotherapy vs. sorafenib + probenecid (90% CI), sorafenib concentration in keratinocytes: −28.1% (−46.3% to −3.7%)
[5]; vs sorafenib alone, decrease
  decrease of sorafenib concentration in skin in the presence of probenecid: 28.1%

## CNC(=O)c1cc(Oc2ccc(NC(=O)Nc3ccc(Cl)c(C(F)(F)F)c3)cc2)cc[n+]1[O-] [Sorafenib-N-oxide, sorafenib-N-oxide]
[6]
  RD sorafenib monotherapy vs. sorafenib + probenecid (90% CI), AUC0–12 h: −36.3% (−52.8% to −14.1%)
  RD sorafenib monotherapy vs. sorafenib + probenecid (90% CI), Cmax: −39.2% (−54.6% to −18.7%)
  RD sorafenib monotherapy vs. sorafenib + probenecid (90% CI), Ctrough: −35.2% (−59.7% to 4.3%)
[7]
  Cmax (CV%) geomean: 467.3 (77) μg/mL
  Ctrough (CV%) geomean: 271.1 (282) μg/mL
Vs sorafenib alone, decrease
  decrease of geometric mean plasma AUC0–12 h with concomitant probenecid: 36.3%
  decrease of plasma Cmax with concomitant probenecid: 39.2%
